Assay results from patent US12366576B2, “Compositions, assays, and methods for direct modulation of fatty acid metabolism” (Dana-Farber Cancer Institute, Inc., priority 2016, dated 2025).
Bridge positions count the residues as written; N and C are the ends. Square brackets hold non-standard residues; d marks the D form. Ends that are not written are not given here. Peptide text beside a SMILES is read from it. S5 = C=CCCC[C@](C)(N)C(=O)O

System: endogenous MCL-1
Experiment: Biotinylated SAHB pulldown from MEF lysates, anti-MCL-1 Western analysis
Type: binding, mouse
Settings: for summary of binding properties: binding to MCL-1: pull-downs; for effect of alanine mutation on biotinylated MCL-1 SAHBD interaction with MCL-1: pull-downs from MEF lysates
Protocol: An exploratory proteomics analysis was conducted to identify proteins that interact with the MCL-1 BH3 domain helix. An extensive library of MCL-1 stapled BH3 peptides (FIG. 2) was generated to both identify novel protein interactors by mass spectrometry and then deploy the stapled peptide constructs as novel probes to dissect and pharmacologically modulate the identified protein interactors and associated signaling pathways. As an example, an N-terminally biotinylated stapled peptide designed based on the sequence of MCL-1's BH3 domain (Btn-MCL-1 SAHBD), or vehicle, was incubated with wild-type mouse embryonic fibroblast (MEF) lysates, followed by high stringency streptavidin capture. To validate the proteomics workflow and ensure that Btn-MCL-1 SAHBD could, in fact, engage protein interactors in a lysate, eluates were first run on a gel for anti-MCL-1 Western analysis. […] For mass spectrometry (MS) analysis, eluates were run on a reducing/denaturing gel followed by Coomassie staining (FIG. 4) and in-gel digestion was performed before injection on the instrument.
The binding determinants for the MCL-1 BH3/VLCAD interaction were investigated by generating a series of biotinylated MCL-1 SAHBD alanine point mutants (FIG. 18A) and performing streptavidin pull-downs from MEF lysates, followed by VLCAD and MCL-1 western analysis of the resulting eluates. […] Native alanines and residues not mutated are colored white.
Wild-type MEFs were trypsinized, washed once with cold PBS, and lysed on ice with NP-40 lysis buffer (50 mM Tris, pH 7.4, 150 mM NaCl, 0.5% (v/v) NP-40, complete protease inhibitor pellet (Roche)) using 1 ml of lysis buffer for every 10 million cells lysed. Cellular debris was pelleted at 14,000 g for 10 min at 4° C., and the supernatant was quantified using the BCA Protein Assay Kit (Thermo Fisher Scientific). 2 mg of lysate per pulldown were then exposed to 50 μL of pre-equilibrated High Capacity Streptavidin Agarose beads (Thermo Fisher Scientific). […] The beads were then pelleted and washed with NP-40 lysis buffer three times before eluting the protein sample from the beads by heating at 70° C. for 10 min in SDS loading buffer. Samples were then subjected to electrophoresis and either Western analysis or Coomassie stain (SimplyBlue Safe Stain, Thermo Fisher Scientific). […] Coomassie stained gels were then processed for proteomics analysis (see below). Biotinylated SAHB pulldowns of recombinant protein were performed as above incubating 5 nmol of SAHB with 10 pmol of rVLCAD in 500 μL total volume. Densitometry analyses were performed using ImageJ software.

Molecule	summary of binding properties: binding to MCL-1	effect of alanine mutation on biotinylated MCL-1 SAHBD interaction with MCL-1
F228A: biotinylated MCL-1 SAHBD alanine point mutant F228A (RKALETLRRVGDGV[S5]RNH[S5]TAA; staple 15-19; also: biotinylated, place not given here)	Does not bind	–
D218A: biotinylated MCL-1 SAHBD alanine point mutant D218A (RKALETLRRVGAGV[S5]RNH[S5]TAF; staple 15-19; also: biotinylated, place not given here)	Binds	–
L213A: biotinylated MCL-1 SAHBD alanine point mutant L213A (RKALETARRVGDGV[S5]RNH[S5]TAF; staple 15-19; also: biotinylated, place not given here)	Does not bind	disrupted
R215A: biotinylated MCL-1 SAHBD alanine point mutant R215A (RKALETLRAVGDGV[S5]RNH[S5]TAF; staple 15-19; also: biotinylated, place not given here)	Binds	–
MCL-1 SAHBD: hydrocarbon-stapled peptide mimicking the MCL-1 BH3 domain (Stabilized Alpha-Helix of BCL-2 Domain), SEQ ID NO:19 (RKALETLRRVGDGV[S5]RNH[S5]TAF; staple 15-19)	Binds	–
CC(=O)N[C@@H](CCCNC(=N)N)C(=O)N[C@@H](CCCCN)C(=O)N[C@@H](C)C(=O)N[C@@H](CC(C)C)C(=O)N[C@@H](CCC(=O)O)C(=O)N[C@H](C(=O)N[C@@H](CC(C)C)C(=O)N[C@@H](CCCNC(=N)N)C(=O)N[C@@H](CCCNC(=N)N)C(=O)N[C@H](C(=O)NCC(=O)N[C@@H](CC(=O)O)C(=O)NCC(=O)N[C@@H](C)C(=O)N[C@@]1(C)CCCC=CCCC[C@@](C)(C(=O)N[C@H](C(=O)N[C@@H](C)C(=O)N[C@@H](Cc2ccccc2)C(N)=O)[C@@H](C)O)NC(=O)[C@H](Cc2c[nH]cn2)NC(=O)[C@H](CC(N)=O)NC(=O)[C@H](CCCNC(=N)N)NC1=O)C(C)C)[C@@H](C)O [V220A] (Ac-RKALETLRRVGDGA[S5]RNH[S5]TAF-NH2; staple 15-19; N-terminus and C-terminus assumed)	weakly or not	uniquely disruptive
R214A: biotinylated MCL-1 SAHBD alanine point mutant R214A (RKALETLARVGDGV[S5]RNH[S5]TAF; staple 15-19; also: biotinylated, place not given here)	Does not bind	–
R207A: biotinylated MCL-1 SAHBD alanine point mutant R207A (AKALETLRRVGDGV[S5]RNH[S5]TAF; staple 15-19; also: biotinylated, place not given here)	diminished binding	–
